The values below come from patent publication US20100254942A1, “HEPATITIS C ANTIVIRAL COMPOSITIONS AND METHODS” (BIOTRON LIMITED, priority 2007, published 2010).

“Also recorded” adds a separate entry of the source. Where two headings read alike, the source gives them in different places.

Data set [1] concerns the target T1, HCV p7 ion channel protein (Hepatitis C virus genotype 1a, UniProt P27958).
T1 construct: codons were optimised for expression of the p7 protein in E. coli; expressed in transfected cells; host or cells: E. coli carrying plasmid pPLp7 (pPL451 backbone, temperature-inducible)
In words: Bacterial bioassay: growth of E. coli expressing HCV p7. It counts as cell-based. Further details: scale not given here. The following applies: cumulative averaged scores; result above zero indicates potential anti-viral activity. From the text: The bacterial bioassay method used in the present example to test the anti-viral activity of the compounds against different viral targets was described in detail in PCT/2004/000866, incorporated in its entirety herein by reference. This assay is used in conjunction with the GBV-B and BVDV assays described below, to ensure that all active compounds are identified, some of which are active in one or the other of the assays, while some compounds may be active in both assays.
Briefly, the bacterial bio-assay for screening potential anti-HCV compounds is based on the HCV p7 ion channel protein. p7 is a small membrane protein encoded by HCV, which has a functional activity supporting viral growth and/or replication.
The p7-encoding synthetic cDNA fragment cDp7.coli, in which codons were optimised for expression of the p7 protein in E. coli, was cloned into the expression plasmid pPL451, creating the vector pPLp7, in which p7 expression is temperature inducible, as described in detail in PCT/2004/000866. Inhibition of the growth of E. coli cells expressing p7 at 37° C. was observed as an indicator of p7 ion channel function dissipating the normal Na+gradient maintained by the bacterial cells. Halos of growth around a particular compound application site indicate that the compound has inhibited expression of the p7 ion channel activity that prevents growth in the absence of the compound.
The positive controls were used in this assay to ensure that the assay was working rather than for comparison of relative activities of the compounds.

In another data set the test system is GBV-B. Nature of the data set: GBV-B replication in primary marmoset hepatocytes (viral RNA by real-time RT-PCR). It counts as cell-based. The text has this:
GBV-B is the most closely related flavivirus to HCV, sharing 27-33% nucleotide sequence identity and 28% amino acid similarity over the complete polypeptide sequence. This virus represents an excellent surrogate system for HCV because it infects small New World primates and replicates efficiently in vitro in primary marmoset hepatocyte (PMH) cultures. The GBV-B homologue of HCV p7 is called p13. It is shown herein that a synthetic peptide corresponding to the two C-terminal transmembrane helices of p13 (which share the greatest homology to p7) forms a cation selective ion channel that, like the p7 channel, is blocked by amantadine (Premkumar et al., 2006). […] These observations confirm that the two homologous channels share similar, but not identical, structural features.
Selected BIT compounds—identified by bacterial assay screening for inhibitors of HCV p7—were tested for ability to inhibit GBV-B replication in primary marmoset hepatocytes (see FIG. 1). The hepatocytes were inoculated 3-days after plating with 10× TCID50 of GBV-B positive marmoset serum. […] was adsorbed for two hours, and then the cells were washed three times and cultured for two days in fresh serum-free medium (SFM) supplemented with hormones and growth factors. Virus released to the culture supernatant was measured as viral RNA copy number, as determined by real-time RT-PCR. […]

The test system of data set [2] is bovine viral diarrhea virus (BVDV) strain NADL. In words: BVDV CPE-inhibition assay in MDBK cells. The class given is cell-based. The following applies: for EC50: read-out: EC50. The procedure:
The antiviral evaluation of selected BIT compounds against BVDV was outsourced to Southern Research Institute (SRI), Fredrick Md. USA. A simple cytoprotection format is used in which the antiviral efficacy of the compounds is assessed by their ability to reduce the cytopathic effect of BVDV infection in Madin-Darby bovine kidney cells (Buckwold et al., 2003)
(§1) A virus-induced cytopathogenic effects (CPE)-inhibition assay procedure was employed to evaluate compounds for antiviral activity against bovine viral diarrhea virus (BVDV) strain NADL, in Madin-Darby bovine kidney (MDBK) cells passaged in T-75 flasks (1, 2). Antiviral assays were designed to test six half-log concentrations of each compound in triplicate against the challenge virus. Cell controls (CC) containing medium alone, virus-infected cell controls (VC) containing medium and virus, drug cytotoxicity controls containing medium and each drug concentration, reagent controls containing culture medium only (no cells), and drug colorimetric controls containing drug and medium (no cells) are run simultaneously with the test samples. Human interferon-α 2b was used as a positive control compound. On the day preceding the assay, the cells were trypsinized, pelleted, counted and resuspended at 1×10^4/well in tissue culture medium in 96-well flat bottom tissue culture plates in a volume of 100 μl per well. One day following plating of cells, the wells were washed and the medium was replaced with complete medium (2% serum) containing various concentrations of test compound diluted in medium in a half-log series. A pre-titered aliquot of virus was removed from the freezer (−80° C.) just before each experiment. The virus was diluted into tissue culture medium such that the amount of virus added to each well would give complete cell killing at 6-7 days post-infection. The plates were incubated at 37° C. in a humidified atmosphere containing 5% CO2 until maximum CPE is observed in the untreated virus control cultures (˜day 7) Inhibition of CPE by the compound was determined using Cell Titer 96 (Promega). A colorimetric method for determining the number of viable cells was used. A computer program was utilized to calculate the percent of CPE reduction of the virus-infected wells and the percentage cell viability of uninfected drug control wells. […] A therapeutic (selectivity) index (TI50) for each active compound was determined by dividing the TC50 by the IC50.
(§2) Drug cytotoxicity was measured separately in uninfected cells. Eleven BIT compounds were tested in the first experiment in which the compounds were added to the cells just prior to infection and were maintained throughout the entire experiment. Two of them, BIT225 and BIT314 returned sub-micromolar IC50 values (see Table 2 below).

Data set [3] has as its system Madin-Darby bovine kidney (MDBK) cells. Nature of the data set: Drug cytotoxicity in uninfected MDBK cells. The following applies: uninfected MDBK cells. It counts as cell-based.
Excerpt: as §1, §2

Data set [4] concerns bovine viral diarrhea virus (BVDV) strain NADL. The conditions noted are these: well known from the literature; cited from earlier work.

T1 sequence (P27958 747-809): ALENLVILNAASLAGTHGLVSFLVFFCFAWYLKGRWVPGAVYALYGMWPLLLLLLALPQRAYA

Regarding `Cn1cc(-c2cccc3cc(C(=O)NC(=N)N)ccc23)cn1` [BIT225, 5-(1-methylpyrazol-4-yl)2-naphthoylguanidine], in data set [1], the “Average Bacterial Assay Score HCV p7” value was found to be 1.20. Further, the “Virus in the culture supernatant (viral RNA copy number)” value in the data set with GBV-B (cells pre-treated with 20 μM) is given as “no virus was detected”. The “Efficacy when compounds were added post-inoculation” value in the data set with GBV-B (post-treatment versus pre-treatment) was “reduced somewhat”. Moreover, the 50% inhibitory concentration (IC50) in data set [2] (BVDV in MDBK cells, compound added just prior to infection and maintained, N/A = not achieved, read-out: IC50) came to 530 nM; in data set [2] (Bovine viral diarrhea virus isolates and strains, MDBK, Table 2a, read-out: BVDV IC50), 1270 nM; in data set [2] (Bovine viral diarrhea virus isolates and strains, MDBK, subsequent repeat assay, read-out: IC50), 330 nM. Further, the EC50 came out at 314 nM in data set [2] (Bovine viral diarrhea virus isolates and strains, MDBK, drug tested individually against BVDV); 92 nM in data set [2] (Bovine viral diarrhea virus isolates and strains, MDBK, in the presence of 5 IU/ml IFNα, Hill slope constrained); 149 nM in data set [2] (Bovine viral diarrhea virus isolates and strains, MDBK, in the presence of 5 IU/ml IFNα, variable Hill slope); 71 nM in data set [2] (Bovine viral diarrhea virus isolates and strains, MDBK, in the presence of 10 IU/ml IFNα, Hill slope constrained); 125 nM in data set [2] (Bovine viral diarrhea virus isolates and strains, MDBK, in the presence of 10 IU/ml IFNα, variable Hill slope). The inhibition at 0.031 µM in data set [2] (Bovine viral diarrhea virus isolates and strains, MDBK, 31 nM BIT225 alone) is ~5%. In addition, the “IC50 values (in words)” value in data set [2] (first experiment, Table 2) is reported as “sub-micromolar”. In data set [3], this compound showed a TC50 of 11600 nM.

Consider `NC(=O)c1ncn([C@@H]2O[C@H](CO)[C@@H](O)[C@H]2O)n1` [Ribavirin, reference compound], for which, in data set [2] (1.25 μg/ml Ribavirin alone), the antiviral activity result is given as “no antiviral activity”. In data set [2] (alone, range up to 20 μg/ml), the “Antiviral activity on its own” value was “only very little antiviral activity was detected; also recorded: no antiviral activity”. Besides, in data set [4], the “activity against BVDV on its own” value is reported as “very little activity”.
